Read-outs that look alike come from different tables or passages of the source.
Key:
[1] = biological target: T1, Progestogen receptor of rabbit uterus (Oryctolagus cuniculus, UniProt P06186); assay: Progestogen receptor of rabbit uterus: relative liaison affinity (RLA), displacement of tritiated Product R; assay type: binding; conditions: for relative liaison affinity (RLA), Progestogen receptor: vs tritiated Product R; for activity for the progestogen receptor (in words): conclusion
T1 construct: Their uterus were removed, weighed and homogenized at 0° C; from tissue; host or cells: 105,000 g supernatant (cytosol) of uterus from estradiol-treated impuberal rabbits
T1 sequence (P06186 1-930): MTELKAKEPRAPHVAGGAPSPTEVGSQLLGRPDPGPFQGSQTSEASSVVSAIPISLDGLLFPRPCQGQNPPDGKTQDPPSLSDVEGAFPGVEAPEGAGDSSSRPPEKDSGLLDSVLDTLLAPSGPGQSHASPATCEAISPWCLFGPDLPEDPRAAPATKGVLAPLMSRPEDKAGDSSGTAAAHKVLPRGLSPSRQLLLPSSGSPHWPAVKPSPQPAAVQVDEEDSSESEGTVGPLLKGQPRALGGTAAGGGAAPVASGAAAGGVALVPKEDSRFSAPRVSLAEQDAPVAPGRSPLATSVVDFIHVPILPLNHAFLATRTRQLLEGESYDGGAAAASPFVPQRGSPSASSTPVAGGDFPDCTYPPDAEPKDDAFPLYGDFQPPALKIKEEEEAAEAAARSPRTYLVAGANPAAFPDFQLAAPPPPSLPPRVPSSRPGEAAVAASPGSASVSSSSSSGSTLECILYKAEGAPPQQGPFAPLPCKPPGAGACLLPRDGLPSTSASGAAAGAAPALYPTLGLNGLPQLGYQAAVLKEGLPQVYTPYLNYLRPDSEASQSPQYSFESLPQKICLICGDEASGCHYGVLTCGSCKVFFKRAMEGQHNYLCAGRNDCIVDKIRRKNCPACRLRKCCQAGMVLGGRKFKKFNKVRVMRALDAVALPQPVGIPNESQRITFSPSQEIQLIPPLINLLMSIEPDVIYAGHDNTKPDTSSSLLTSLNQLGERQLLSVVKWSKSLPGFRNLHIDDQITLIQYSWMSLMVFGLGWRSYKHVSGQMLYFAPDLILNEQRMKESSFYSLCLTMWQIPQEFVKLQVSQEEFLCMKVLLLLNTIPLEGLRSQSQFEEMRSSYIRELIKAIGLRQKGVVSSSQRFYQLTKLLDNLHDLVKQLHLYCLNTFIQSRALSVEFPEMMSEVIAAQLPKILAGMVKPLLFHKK
Method: (1) Study of the activity on the hormone receptors
Progestogen receptor of rabbit uterus
Impuberal rabbits of about 1 kg received a cutaneous application of […] of estradiol and 5 days after this treatment, the animals were killed. Their uterus were removed, weighed and homogenized at 0° C. using a Potter teflon-glass in a TS buffered solution (Tris 10 mM, saccharose 0.25M, HCl pH 7.4) (1 g of tissue for 50 ml of TS). The homogenate was then ultracentrifuged at 105,000 g for 90 minutes at 0° C. Aliquots of the supernatant so obtained were incubated at 0° C. for a time t, with a constant concentration (T) of Product R tritiated (17,21-dimethyl-19-nor-Δ^4,9 -pregnadiene-3,20-dione) in the presence of increasing concentrations (0-2,500 10^-9 M) either of R cold, or of cold progesterone, or of the cold product under test. The concentration of tritiated R bonded (B) was then measured in each incubate by the technique of adsorption to dextran-carbon.
(§1) Calculation of the relative liaison affinity
(§2) The calculation of the relative liaison affinity (RLA) was identical for all the receptors. The two following curves were traced: the percentage of tritiated hormone bonded B as a function of the logarithm of the concentration of the cold reference hormone, and B/T as a function of the logarithm of the concentration of the cold product under test. The straight line was determined of the equation [formula] (B/T) max=percentage of tritiated hormone bonded for an incubation of this tritiated hormone at the concentration (T).
(§3) (B/T) min.=percentage of tritiated hormone bonded for an incubation of the tritiated hormone at the concentration (T) in the presence of a great excess of cold hormone (2500.10^-9 M).
(§4) The intersections of the straight line I50 and of the curves enabled the concentrations of the cold reference hormone (CH) and the cold product under test (CX) to be evaluated which inhibit by 50% the bonding of the tritiated hormone on the receptor.
The relative liaison affinity (RLA) of the product under test was determined by the equation [formula] and the following results were obtained: […]

[2] = biological target: T2, Glucocorticoid receptor of rat thymus (Rattus norvegicus, UniProt P06536); assay: Glucocorticoid receptor of rat thymus: relative liaison affinity (RLA), displacement of tritiated dexamethasone; assay type: binding, Male Sprague-Dawley EOPS rats; conditions: for relative liaison affinity (RLA), Glucocorticoid receptor: vs tritiated dexamethasone; for affinity for the glucocorticoid receptors (in words): conclusion
T2 construct: Their thymus was removed and homogenized at 0° C; from tissue; host or cells: 105,000 g supernatant (cytosol) of thymus from adrenalectomized male Sprague-Dawley rats
T2 sequence (P06536 1-795): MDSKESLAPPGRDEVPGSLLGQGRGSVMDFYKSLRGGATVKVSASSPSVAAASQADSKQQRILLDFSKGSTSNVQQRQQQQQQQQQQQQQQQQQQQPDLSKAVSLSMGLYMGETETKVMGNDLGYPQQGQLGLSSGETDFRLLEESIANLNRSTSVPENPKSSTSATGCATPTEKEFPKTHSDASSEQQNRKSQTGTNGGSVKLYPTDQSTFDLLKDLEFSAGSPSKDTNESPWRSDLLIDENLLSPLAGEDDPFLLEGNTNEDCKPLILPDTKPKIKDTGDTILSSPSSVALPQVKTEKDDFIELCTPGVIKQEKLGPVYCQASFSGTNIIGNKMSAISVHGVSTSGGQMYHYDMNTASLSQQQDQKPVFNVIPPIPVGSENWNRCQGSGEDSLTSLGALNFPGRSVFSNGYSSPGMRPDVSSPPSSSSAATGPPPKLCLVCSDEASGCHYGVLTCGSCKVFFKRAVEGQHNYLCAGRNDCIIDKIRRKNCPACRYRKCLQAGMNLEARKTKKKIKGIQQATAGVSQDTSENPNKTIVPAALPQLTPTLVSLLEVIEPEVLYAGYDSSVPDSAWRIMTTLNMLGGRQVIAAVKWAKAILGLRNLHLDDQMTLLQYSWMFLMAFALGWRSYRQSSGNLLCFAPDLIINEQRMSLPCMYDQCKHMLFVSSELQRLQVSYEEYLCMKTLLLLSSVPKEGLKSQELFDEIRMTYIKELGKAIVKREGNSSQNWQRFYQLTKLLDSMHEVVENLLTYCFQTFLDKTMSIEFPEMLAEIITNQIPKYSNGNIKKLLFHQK
Method: Glucocorticoid receptor of rat thymus:
Their thymus was removed and homogenized at 0° C. in a buffer Tris 10 mM saccharose 0.25M, dithiotreitol 2 mM, HCl pH 7.4, using a Potter polytetrafluoroethylene-glass (1 g of tissue for 10 ml of TS). The homogenate was then ultracentrifuged at 105,000 g for 90 minutes at 0° C. Aliquots of the supernatant so obtained were incubated at 0° C. for a time (t) with a constant concentration (T) of tritiated dexamethasone in the presence of increasing concentrations (0-2,500.10^-9 M) either of cold dexamethasone, or of the cold product under test. The concentration of tritiated dexamethasone bonded (B) was then measured in each incubate by the technique of adsorption to dextran-carbon.
as §1, §2, §3, §4

[3] = system: Thymocytes of suprarenalectomized rats; assay: Anti-glucocorticoid activity: inhibition of the effect of dexamethasone on incorporation of tritiated uridine in thymocytes; assay type: cell-based; conditions: for inhibition at 1 µM / inhibition at 0.1 µM / inhibition at 0.01 µM: Thymocyte, read-out: % inhibition of the effect of Dexamethasone
Method: (II). Anti-glucocorticoid activity
The technique utilized envolved from the method described by Dausse et al in "Molecular Pharmacology", Vol. 13, p. 948-955 (1977) ("the relationship between glucocorticoid structure and effects upon Thymocytes") for the thymocytes of mice. Thymocytes of suprarenalectomized rats were incubated at 37° C. for 3 hours in a nutritive medium containing 5.10^-8 M of dexamethasone in the presence or not of a product under study at different concentrations. Tritiated uridine was added and the incubation was continued for one hour. The incubates were cooled, then treated with a 5% solution of trichloroacetic acid, filtered on Whatman paper GF/A, and washed three times with a 5% solutioh of trichloroacetic acid. The radio-activity retained by the filter was determined.

[4] = 5.10^-8 M dexamethasone, rat thymocytes
[5] = product at 10^-6 M, 5.10^-8 M dexamethasone, rat thymocytes, 37° C., 3 hours
[6] = product at 10^-7 M, 5.10^-8 M dexamethasone, rat thymocytes, 37° C., 3 hours
[7] = product at 10^-8 M, 5.10^-8 M dexamethasone, rat thymocytes, 37° C., 3 hours

| Compound | relative liaison affinity (RLA), Progestogen receptor ([1]; Incubation time 2 H at 0° C.) | relative liaison affinity (RLA), Progestogen receptor ([1]; Incubation time 24 H at 0° C.) | activity for the progestogen receptor (in words) [1] | relative liaison affinity (RLA), Glucocorticoid receptor ([2]; Incubation time 4 H at 0° C.) | relative liaison affinity (RLA), Glucocorticoid receptor ([2]; Incubation time 24 H at 0° C.) | affinity for the glucocorticoid receptors (in words) [2] | effect on dexamethasone-induced diminution in the incorporation of tritiated uridine (in words) [3, 4] | inhibition at 1 µM [3, 5] [%] | inhibition at 0.1 µM [3, 6] [%] | inhibition at 0.01 µM [3, 7] [%] | inhibition at 0.01 µM ([3]; Rattus norvegicus, 3 h) [%] | inhibition at 0.1 µM ([3]; Rattus norvegicus, 3 h) [%] | inhibition at 1 µM ([3]; Rattus norvegicus, 3 h) [%] | incorporation of tritiated uridine (in words) ([3]; rat thymocytes, dexamethasone) |
| --- | --- | --- | --- | --- | --- | --- | --- | --- | --- | --- | --- | --- | --- | --- |
| CC#C[C@]1(O)CC[C@H]2[C@@H]3CCC4=CC(=O)CC[C@]4(Cc4ccccc4)C3=CC[C@@]21C [Example 1, 10β-benzyl-17α-(prop-1-ynyl)-Δ^4,9(11) -estradien-17β-ol-3-one] | 0.1 | 0.1 | negligible activity | 160 | 57 | very marked affinity | oppose this effect | 80 | 55 | 20 |  |  |  |  |
| CC#C[C@]1(O)CC[C@H]2[C@@H]3CCC4=CC(=O)CC[C@]4(Cc4ccc(C)cc4)C3=CC[C@@]21C [Example 4, 10β-[4-methyl-benzyl]-17α-(prop-1-ynyl)-Δ^4,9(11) -estradiene-17β-ol-3-one] |  |  | negligible activity |  |  |  | oppose this effect |  |  |  | 10 | 30 | 83 |  |
| C=C(C)C[C@]12CCC(=O)C=C1CC[C@@H]1C2=CC[C@@]2(C)[C@H]1CC[C@@]2(O)C#CC [Example 7, 10β-(2-methyl-prop-2-en-1-yl)-17α-(prop-1-ynyl)-Δ^4,9(11) -estradien 17β-ol-3-one] | 0.4 | 0.1 | negligible activity | 226 | 112 | very marked affinity | oppose this effect | 65 | 16 | 10 |  |  |  |  |
| CC#C[C@]1(O)CC[C@H]2[C@@H]3CCC4=CC(=O)CC[C@]4(Sc4ccc(OC)cc4)C3=CC[C@@]21C [Example 10, 10β-[(4-methoxyphenyl)-thio]-17α-(prop-1-ynyl)-Δ^4,9(11) -estradien-17β-ol-3-one] | 0.9 | 0.5 | negligible activity | 218 | 152 | very marked affinity | oppose this effect |  |  |  |  |  |  |  |
| CC#C[C@]1(O)CC[C@H]2[C@@H]3CCC4=CC(=O)CC[C@]4(Cc4ccccc4F)C3=CC[C@@]21C [Example 12, 10β-[2-fluorobenzyl]-17α-(prop-1-ynyl)-Δ^4,9(11) -estradien-17β-ol-3-one] | 0.1 | 0.1 | negligible activity | 136 | 45 | very marked affinity | oppose this effect | 67 | 12 | 6 |  |  |  |  |
| C[C@@H]1C[C@H]2[C@@H]3CCC4=CC(=O)C=C[C@]4(C)[C@@]3(F)[C@@H](O)C[C@]2(C)[C@@]1(O)C(=O)CO [dexamethasone, reference compound] |  |  |  |  |  |  |  |  |  |  |  |  |  | diminution in the incorporation of tritiated uridine |
